Reference: publication PMC8631675, “Neuroprotective effects of some epigenetic modifying drugs’ on Chlamydia pneumoniae-induced neuroinflammation: A novel model” (PLoS ONE, 2021)
pIC50: −log10 of the molar value. Read-outs that look alike come from different tables or passages of the source.

Legend:
[1] = test system: differentiated SH-SY5Y cells; assay: Annexin V-PI staining of Aβ-induced cell death, flow cytometry; assay type: cell-based, human; conditions: for Necrotic effect (Q5-UL): control 1.6%; for Apoptotic effect (early apoptosis + late apoptosis): control 1.9%; for Percentage of living cells (Live): control 96.5%
Description: To determine neuronal apoptosis associated with Aβ exposure, 25x10^3 differentiated SH-SY5Y cells were seeded in 24-well plates and Aβ was applied. After 24 h, cells were trypsinized and staining was performed according to the CF 488A Annexin V and PI Apoptosis Kit (Biotium, USA, Cat. No: 30061) protocol. After washing the cells with 1xPBS, the working solution was prepared by diluting the PI with Annexin V binding buffer included in the kit. 5 μl Annexin V and 2 μl PI working solution were added to the centrifuge tubes and binded with 100 μl Annexin V binding buffer. After the samples were incubated for 30 minutes on ice and in the dark, 400 μl of Annexin V binding buffer was added to each tube and the samples were measured and analyzed in a BD Accuri™ C6 flow cytometry device.

SH-SY5Y cells = assay: Total ROS/Superoxide detection; assay type: cell-based, human; conditions: for Increase of ROS levels compared to the control group: inducers without drug pretreatment (Aβ, pyocyanin, or both)
Description: The Total ROS/Superoxide Detection Kit (ENZ-51010, Enzo) was used according to the kit process for evaluating the protective effects of the treatment groups on SH-SY5Y cells seeded at a 2x10^4 density per well in 96-well plates and Aβ was applied. ROS inhibitor N-acetyl cysteine (NAC) was applied at 5 mM concentration to negative control groups 30 minutes before the experiment and after incubation, 100 μL of “ROS/Superoxide Detection Solution” was added to the wells in the kit. The same procedure was done without the application of ROS inhibitor. Fluorometric analysis of stained cells was analyzed with Cytation 3 Cell Imaging Multi-Mode Reader (BioTek) using 490/525 nm and 550/620 nm filter sets.

HMC3 microglia cells = assay: Cell proliferation (cytotoxicity) analysis with xCELLigence, HMC3; assay type: cell-based, human
Description: (§1) Cell proliferation analysis was performed with xCELLigence Real-Time Cell Analysis System to assess TSA, RG108, givinostat, and rifampin concentrations for use in both models. Differentiated SH-SY5Y and HMC3 microglia cells were seeded at a 5x10^3 density per well and incubated 24 h until CI values reached a log phase. The system stopped at the end of 24 h, 100, 10 and 1 μM TSA, givinostat, RG108 and rifampin were applied on current media and the cell viability was tracked. […] Simultaneously, slope plots were drawn using the CI values at 24 and 48 hours, and the statistical significance of the values discovered by assuming the average CI values of the control wells to be 100% was calculated.

[2] = test system: differentiated SH-SY5Y cells; assay: Cell proliferation (cytotoxicity) analysis with xCELLigence, SH-SY5Y; assay type: cell-based, human
Description: as §1

[3] = test system: differentiated SH-SY5Y cells; assay: Cell viability against Aβ-induced neurotoxicity, xCELLigence; assay type: cell-based, human
Description: Pathological deterioration in AD is mainly associated with overproduction of the Aβ peptide and the Aβ (1–42) variant is the toxic form that is more predominant in Alzheimer’s patients. In this study, a modified oligomeric Aβ (1–42) neurotoxicity analysis protocol was applied in order to elucidate the effects of treatment groups on SH-SY5Y cell viability in the presence of Aβ [56]. In order to model Aβ-induced neurotoxicity in vitro, an oligomeric form of the Aβ1–42 peptide was prepared by diluting with ice-cold Ham’s F12 Nutrient Mixture medium dissolved in PBS containing 0.02 M NaOH at a final concentration of 50 μM and kept in a 37°C incubator for 7 days to form peptide aggregates prior to the experiments. 5x10^3 SH-SY5Y cells were differentiated inside the xCELLigence instrument for 5 days and treated with 100 nM TSA, RG108, givinostat, rifampin; 100 ng/ml LPS+IFN-ɣ or 1 μg/ml CFS+IFN-ɣ for 24 h in order to evaluate neuroprotection. The co-culture was performed in the same way as the neuroinflammation model. Neurotoxicity was obtained instead of neuroinflammation by diluting to 5 μM with fresh medium and adding Aβ1–42 aggregates to the wells for 24 h in 100 μl of medium. Cell viability data was then monitored for 24 h and analyzed within the instrument.

APP/PS1 mice = test system: APP/PS1 mice; set-up: method as in PMID 33397436; conditions: cited from earlier work
[4] = pretreatment (drugs 100 nM; LPS 100 ng/ml + IFN-γ; CFS 1 μg/ml + IFN-γ) + 5 μM Aβ 24 h
[5] = 30 minutes NAC 5 mM, treated (drugs 100 nM; LPS 100 ng/ml; CFS 1 μg/ml, with IFN-γ) prior to Aβ exposure
[6] = cells treated (drugs 100 nM; LPS 100 ng/ml; CFS 1 μg/ml, with IFN-γ) before exposure to Aβ, without NAC
[7] = 24 h pretreatment (drugs 100 nM; CFS 1 μg/ml + IFN-γ; LPS 100 ng/ml + IFN-γ), then 5 μM Aβ (1–42) aggregates 24 h

## CCN(CC)Cc1ccc2cc(COC(=O)Nc3ccc(C(=O)NO)cc3)ccc2c1 [Givinostat, givinostat]
[1]; 100 nM + 5 μM Aβ
  Reduction of cell viability compared to the Aβ positive control group: 0.5%
[1]; [4]
  Necrotic effect (Q5-UL): 7.8%
  Apoptotic effect (early apoptosis + late apoptosis): 7.8%
  Percentage of living cells (Live): 84.3%
SH-SY5Y cells; [5]
  Increase of total amount of ROS compared to the control group, with NAC: 22.87%
SH-SY5Y cells; [6]
  Decrease of total ROS amount according to the Aβ group: 30.49%
SH-SY5Y cells; cells treated (drugs 100 nM; LPS 100 ng/ml; CFS 1 μg/ml, with IFN-γ) before exposure to Aβ, without NAC, not significant
  Increase of total amount of ROS compared to the control group: 13.09%
HMC3 microglia cells; 1 μM (printed M), 24 hours
  Reduction of HMC3 cell viability compared to the control group: 35.01%
HMC3 microglia cells; 1 μM (printed M), 48 hours
  Reduction of HMC3 cell viability compared to the control group: 62.78%
HMC3 microglia cells; 10 μM, 24 hours
  Reduction of HMC3 cell viability compared to the control group: 58.19%
HMC3 microglia cells; 10 μM, 48 hours
  Reduction of HMC3 cell viability compared to the control group: 92.67%
HMC3 microglia cells; 100 μM, 24 hours
  Reduction of HMC3 cell viability compared to the control group: 93.58%
HMC3 microglia cells; 100 μM, 48 hours
  Reduction of HMC3 cell viability compared to the control group: 99.29%
HMC3 microglia cells; Homo sapiens, HMC3, 24 h, from CI values at 24th hour, 1, 10 and 100 μM tested, read-out: IC50 Values 24h HMC3
  pIC50: 4.93
HMC3 microglia cells; Homo sapiens, HMC3, 48 h, from CI values at 48th hour, 1, 10 and 100 μM tested, read-out: IC50 Values 48h HMC3
  pIC50: 6.27
[2]; 1 μM, 24 hours
  Reduction of differentiated SH-SY5Y cell viability: 88.72%
[2]; 1 μM, 48 hours
  Reduction of differentiated SH-SY5Y cell viability: 90.56%
[2]; 10 μM, 24 hours
  Reduction of differentiated SH-SY5Y cell viability: 96.85%
[2]; 10 μM, 48 hours
  Reduction of differentiated SH-SY5Y cell viability: 96.9%
[2]; 100 μM, 24 hours
  Reduction of differentiated SH-SY5Y cell viability: 98.06%
[2]; 100 μM, 48 hours
  Reduction of differentiated SH-SY5Y cell viability: 98.77%
[2]; Homo sapiens, SH-SY5Y, 24 h, from CI values at 24th hour, 1, 10 and 100 μM tested, read-out: IC50 Values 24h SH-SY5Y
  pIC50: 5.56
[2]; Homo sapiens, SH-SY5Y, 48 h, from CI values at 48th hour, 1, 10 and 100 μM tested, read-out: IC50 Values 48h SH-SY5Y
  pIC50: 5.85
[3]; [7]
  CI values compared to the control group: 136.2%

## CC(/C=C/C(=O)NO)=C\[C@@H](C)C(=O)c1ccc(N(C)C)cc1 [TSA, Trichostatin A]
[1]; [4]
  Necrotic effect (Q5-UL): 5.6%
  Apoptotic effect (early apoptosis + late apoptosis): 5.8%
  Percentage of living cells (Live): 88.6%
SH-SY5Y cells; [5]
  Increase of total amount of ROS compared to the control group, with NAC: 0.7%
SH-SY5Y cells; [6]
  Decrease of total ROS amount according to the Aβ group: 53.43%
SH-SY5Y cells; cells treated with compounds (100 nM) before exposure to Aβ, without NAC
  Decrease of total amount of ROS compared to the control group: 9.85%
HMC3 microglia cells; 1 μM (printed M), 24 hours
  Reduction of HMC3 cell viability compared to the control group: 0.04%
HMC3 microglia cells; 1 μM (printed M), 48 hours
  Reduction of HMC3 cell viability compared to the control group: 1.75%
HMC3 microglia cells; 10 μM, 24 hours
  Reduction of HMC3 cell viability compared to the control group: 13.88%
HMC3 microglia cells; 10 μM, 48 hours
  Reduction of HMC3 cell viability compared to the control group: 21.94%
HMC3 microglia cells; 100 μM, 24 hours
  Reduction of HMC3 cell viability compared to the control group: 31.68%
HMC3 microglia cells; 100 μM, 48 hours
  Reduction of HMC3 cell viability compared to the control group: 51.2%
HMC3 microglia cells; from CI values at 48th hour, 1, 10 and 100 μM tested, read-out: IC50 Values 48h HMC3
  pIC50: 6.81
[2]; 1 μM, 24 hours
  Reduction of differentiated SH-SY5Y cell viability: 91.34%
[2]; 1 μM, 48 hours
  Reduction of differentiated SH-SY5Y cell viability: 97.97%
[2]; 10 μM, 24 hours
  Reduction of differentiated SH-SY5Y cell viability: 97.43%
[2]; 10 μM, 48 hours
  Reduction of differentiated SH-SY5Y cell viability: 98.9%
[2]; 100 μM, 24 hours
  Reduction of differentiated SH-SY5Y cell viability: 97.86%
[2]; 100 μM, 48 hours
  Reduction of differentiated SH-SY5Y cell viability: 99.79%
[2]; from CI values at 24th hour, 1, 10 and 100 μM tested, read-out: IC50 Values 24h SH-SY5Y
  pIC50: 6.22
[2]; from CI values at 48th hour, 1, 10 and 100 μM tested, read-out: IC50 Values 48h SH-SY5Y
  pIC50: 6.51
APP/PS1 mice
  Effect on Aβ plaques and soluble Aβ oligomers in the brain: reduce Aβ plaques and soluble Aβ oligomers in the brain
  Effect on learning and memory behaviors: improve learning and memory behaviors
[3]; [7]
  CI values compared to the control group: 137%

## Cn1c2cccc(=O)c-2nc2ccccc21 [pyocyanin]
SH-SY5Y cells; 30 minutes NAC 5 mM, pyocyanin without Aβ
  Decrease of amount of ROS, with NAC: 0.85%
SH-SY5Y cells; without NAC
  Increase of ROS levels compared to the control group: 36.49%

## Aβ: oligomeric/aggregated Aβ1–42 peptide used at 5 μM to induce neurotoxicity
[1]; 5 μM Aβ alone 24 h
  Necrotic effect (Q5-UL): 6.7%
  Apoptotic effect (early apoptosis + late apoptosis): 8.5%
  Percentage of living cells (Live): 84.8%
SH-SY5Y cells; 30 minutes ROS inhibitor NAC 5 mM, inducers without drug pretreatment (Aβ, or Aβ with pyocyanin)
  Increase of total amount of ROS compared to the control group, with NAC: 6.62%
SH-SY5Y cells; without NAC
  Increase of ROS levels compared to the control group: 43.58%
[3]; 5 μM Aβ (1–42) aggregates alone, 24 h
  CI values compared to the control group: 48.5%
